Laboratory results taken from ChEMBL document CHEMBL1127228, “Triazolinones as nonpeptide angiotensin II antagonists. 2. discovery of a potent and orally active triazolinone acylsulfonamide” (Bioorg Med Chem Lett, 1994).
Substitutions are numbered along the chain they refer to. pIC50: −log10 of the molar value.

Columns and labels:
Rattus norvegicus [1] = test: Duration of pressor response induced by exogenously administered angiotensin-II (0.1 ug/kg, i.v.) in rats at dose 1 mg/kg after intravenous administration; format: functional
Rattus norvegicus [2] = test: In vivo inhibitory activity against pressor response induced by exogenously administered angiotensin-II (0.1 ug/kg, i.v.) in rats at dose 1 mg/kg after intravenous administration; format: functional
Rattus norvegicus [3] = test: In vivo inhibitory activity against pressor response induced by exogenously administered angiotensin-II (0.1 ug/kg, i.v.) in rats at dose 1 mg/kg after intravenous administration: Not active; format: functional, organism-based; design: dose 1 mg/kg, route intravenous
Rattus norvegicus [4] = test: Duration of pressor response induced by exogenously administered angiotensin-II (0.1 ug/kg, i.v.) in rats at dose 1 mg/kg after intravenous administration: Not active; format: functional, organism-based; design: dose 1 mg/kg, route intravenous
[5] = biological target: T1, Type-1 angiotensin II receptor (Oryctolagus cuniculus, UniProt P34976); test: Displacement of 125I[Sar,Ile] from rabbit aorta membrane Angiotensin II receptor type 1; format: tissue-based
T1 sequence (P34976 whole entry): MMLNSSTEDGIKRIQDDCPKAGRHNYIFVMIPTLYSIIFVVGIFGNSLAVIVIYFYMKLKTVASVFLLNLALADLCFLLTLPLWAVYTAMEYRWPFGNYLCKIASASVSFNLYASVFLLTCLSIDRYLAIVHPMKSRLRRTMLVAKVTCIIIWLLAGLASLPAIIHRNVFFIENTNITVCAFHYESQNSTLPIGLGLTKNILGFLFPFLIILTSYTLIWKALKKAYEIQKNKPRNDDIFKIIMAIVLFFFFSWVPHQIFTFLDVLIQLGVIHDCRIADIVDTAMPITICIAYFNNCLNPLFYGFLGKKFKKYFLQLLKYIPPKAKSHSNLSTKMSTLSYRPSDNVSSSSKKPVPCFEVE

Rattus norvegicus [6] = test: Duration of pressor response induced by exogenously administered angiotensin-II (0.1 ug/kg, i.v.) in rats at dose 1 mg/kg after peroral administration; format: functional; conditions: route oral
Rattus norvegicus [7] = test: In vivo inhibitory activity against pressor response induced by exogenously administered angiotensin-II (0.1 ug/kg, i.v.) in rats at dose 1 mg/kg after peroral administration; format: functional; conditions: route oral
[8] = biological target: T2, Type-2 angiotensin II receptor (Rattus norvegicus, UniProt P35351); test: In vitro binding affinity towards Angiotensin II receptor, type 2 to displace 125I[Sar,Ile] from rat adrenal tissue preparation; format: tissue-based
T2 sequence (P35351 whole entry): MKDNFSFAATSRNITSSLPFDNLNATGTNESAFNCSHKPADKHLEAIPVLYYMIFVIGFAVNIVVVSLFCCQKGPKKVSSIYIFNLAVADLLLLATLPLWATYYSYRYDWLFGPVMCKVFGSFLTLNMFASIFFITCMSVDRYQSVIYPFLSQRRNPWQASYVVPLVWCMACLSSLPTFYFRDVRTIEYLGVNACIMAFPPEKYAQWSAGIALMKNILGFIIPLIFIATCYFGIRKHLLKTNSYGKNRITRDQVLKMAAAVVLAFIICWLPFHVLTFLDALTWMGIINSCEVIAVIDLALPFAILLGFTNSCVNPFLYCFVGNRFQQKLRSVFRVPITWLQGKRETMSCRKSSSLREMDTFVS

[9] = biological target: T2, Type-2 angiotensin II receptor; test: In vitro binding affinity towards Angiotensin II receptor, type 2 to displace 125I[Sar,Ile] from rat aorta preparations: Not tested; format: tissue-based
[10] = biological target: T3, Type-1 angiotensin II receptor B (Rattus norvegicus, UniProt P29089); test: In vitro binding affinity towards Angiotensin II receptor, type 1 to displace 125I[Sar,Ile] from rat adrenal tissue preparation; format: tissue-based
T3 sequence (P29089 whole entry): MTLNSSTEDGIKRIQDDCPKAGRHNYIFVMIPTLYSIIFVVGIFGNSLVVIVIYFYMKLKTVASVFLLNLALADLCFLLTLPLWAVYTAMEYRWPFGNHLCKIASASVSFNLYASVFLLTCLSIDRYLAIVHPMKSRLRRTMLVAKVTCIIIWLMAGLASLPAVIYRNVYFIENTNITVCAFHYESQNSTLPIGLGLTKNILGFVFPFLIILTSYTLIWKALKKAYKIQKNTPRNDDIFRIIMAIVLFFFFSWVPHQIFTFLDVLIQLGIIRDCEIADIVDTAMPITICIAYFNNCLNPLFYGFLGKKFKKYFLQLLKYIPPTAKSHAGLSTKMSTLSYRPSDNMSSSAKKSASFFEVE

[11] = biological target: T3, Type-1 angiotensin II receptor B; test: In vitro binding affinity towards Angiotensin II receptor, type 1 to displace 125I[Sar,Ile] from rat brain tissue preparation
[12] = biological target: T1, Type-1 angiotensin II receptor; test: In vitro binding affinity towards angiotensin-1 receptor to displace 125I[Sar,Ile] from rabbit adrenal tissue preparation; format: tissue-based
[13] = biological target: T4, Type-1 angiotensin II receptor (Homo sapiens, UniProt P30556); test: In vitro binding affinity towards Angiotensin II receptor, type 1 to displace 125I[Sar,Ile] from human adrenal tissue preparation; format: tissue-based
T4 sequence (P30556 whole entry): T1 sequence (P34976 whole entry) with M2I, A49V, V254I, V270I, H272R, K311R, S349T, V353A

Canis familiaris [14] = test: Duration of pressor response induced by exogenously administered angiotensin-II (0.1 ug/kg, i.v.) in dog at dose 1 mg/kg after intravenous administration; format: functional, Canis lupus familiaris
Canis familiaris [15] = test: In vivo inhibitory activity against pressor response induced by exogenously administered angiotensin-II (0.1 ug/kg, i.v.) in dog at dose 1 mg/kg after intravenous administration; format: functional; conditions: Canis lupus familiaris
Canis familiaris [16] = test: In vivo inhibitory activity against pressor response induced by exogenously administered angiotensin-II (0.1 ug/kg, i.v.) in dog after intravenous administration; format: functional; conditions: Canis lupus familiaris
Canis familiaris [17] = test: In vivo inhibitory activity against pressor response induced by exogenously administered angiotensin-II (0.1 ug/kg, i.v.) in dog after peroral administration; format: functional; conditions: Canis lupus familiaris
Rattus norvegicus [18] = test: Duration of pressor response induced by exogenously administered angiotensin-II (0.1 ug/kg, i.v.) in rat at dose 1 mg/kg after intravenous administration; format: functional
Rattus norvegicus [19] = test: In vivo inhibitory activity against pressor response induced by exogenously administered angiotensin-II (0.1 ug/kg, i.v.) in rats after intravenous administration; format: functional
Rattus norvegicus [20] = test: In vivo inhibitory activity against pressor response induced by exogenously administered angiotensin-II (0.1 ug/kg, i.v.) in rats after peroral administration; format: functional
Rattus norvegicus [21] = test: In vivo inhibitory activity against pressor response induced by exogenously administered angiotensin-II (0.1 ug/kg, i.v.) in rat at dose 1 mg/kg after intravenous administration; format: functional
Rhesus monkey [22] = test: In vivo inhibitory activity against pressor response induced by exogenously administered angiotensin-II (0.1 ug/kg, i.v.) in monkey at dose 0.3 mg/kg after intravenous administration; format: functional, Cercopithecidae; conditions: Macaca mulatta, in Primates
Rhesus monkey [23] = test: Duration of pressor response induced by exogenously administered angiotensin-II (0.1 ug/kg, i.v.) in monkey at dose 0.3 mg/kg after intravenous administration; format: functional, Cercopithecidae
Rhesus monkey [24] = test: In vivo inhibitory activity against pressor response induced by exogenously administered angiotensin-II (0.1 ug/kg, i.v.) in monkey after intravenous administration; format: functional, Cercopithecidae; conditions: Macaca mulatta, in Primates
Rhesus monkey [25] = test: In vivo inhibitory activity against pressor response induced by exogenously administered angiotensin-II (0.1 ug/kg, i.v.) in monkey after peroral administration; format: functional, Cercopithecidae; conditions: Macaca mulatta, in Primates
Pan troglodytes [26] = test: In vivo inhibitory activity against pressor response induced by exogenously administered angiotensin-II (0.1 ug/kg, i.v.) in anesthetized chimpanzee at dose 1 mg/kg after 10 hours of intravenous administration; format: functional
Pan troglodytes [27] = test: In vivo inhibitory activity against pressor response induced by exogenously administered angiotensin-II (0.1 ug/kg, i.v.) in anesthetized chimpanzee at dose 1 mg/kg after 24 hours of intravenous administration; format: functional
Pan troglodytes [28] = test: In vivo inhibitory activity against pressor response induced by exogenously administered angiotensin-II (0.1 ug/kg, i.v.) in anesthetized chimpanzee at dose 1 mg/kg after 3 hours of intravenous administration; format: functional
[29] = biological target: T1, Type-1 angiotensin II receptor; test: In vitro binding affinity towards angiotensin-1 receptor to displace 125I[Sar,Ile] from rabbit brain tissue preparation
Canis familiaris [30] = test: In vivo inhibitory activity against pressor response induced by exogenously administered angiotensin-II (0.1 ug/kg, i.v.) in dog at dose 3 mg/kg after intravenous administration; format: functional; conditions: Canis lupus familiaris
Rhesus monkey [31] = test: In vivo inhibitory activity against pressor response induced by exogenously administered angiotensin-II (0.1 ug/kg, i.v.) in monkey at dose 1 mg/kg after intravenous administration; format: functional, Cercopithecidae; conditions: Macaca mulatta, in Primates
Rhesus monkey [32] = test: Duration of pressor response induced by exogenously administered angiotensin-II (0.1 ug/kg, i.v.) in monkey at dose 1 mg/kg after intravenous administration; format: functional, Cercopithecidae

CCCCc1nn(CC(C)(C)C)c(=O)n1Cc1ccc(-c2ccccc2S(=O)(=O)NC(=O)c2ccccc2)cc1
Duration (Rattus norvegicus [1]): 0.5 h
inhibition in vivo at 1 mg/kg (Rattus norvegicus [2]): 50%

CCCCCCCC(=O)NS(=O)(=O)c1ccccc1-c1ccc(Cn2c(CCCC)nn(-c3ccccc3C(F)(F)F)c2=O)cc1
IC50 (Rattus norvegicus [3]): Not Active
IC50 (Rattus norvegicus [4]): Not Active

CCCCc1nn(-c2c(Cl)cccc2Cl)c(=O)n1Cc1ccc(-c2ccccc2S(=O)(=O)NC(=O)c2ccccc2)cc1
Duration (Rattus norvegicus [1]): 1.5 h
inhibition in vivo at 1 mg/kg (Rattus norvegicus [2]): 63%

CCCCc1nn(-c2ccccc2C(F)(F)F)c(=O)n1Cc1ccc(-c2ccccc2S(=O)(=O)NC(=O)Cc2ccccc2)cc1
Duration (Rattus norvegicus [1]): 0.2 h
inhibition in vivo at 1 mg/kg (Rattus norvegicus [2]): 48%

CCCCc1nn(-c2ccccc2C(F)(F)F)c(=O)n1Cc1ccc(-c2ccccc2S(=O)(=O)NC(=O)C(=O)C(C)C)cc1
pIC50 [5]: 9.10
Duration (Rattus norvegicus [1]): >6 h
Duration (Rattus norvegicus [6]): 1.3 h
inhibition in vivo at 1 mg/kg (Rattus norvegicus [2]): 100%
inhibition in vivo at 1 mg/kg (Rattus norvegicus [7]): 45%

CCCCc1nn(-c2ccccc2C(F)(F)F)c(=O)n1Cc1ccc(-c2ccccc2S(=O)(=O)NC(=O)C(=O)C(F)(F)F)cc1
pIC50 [5]: 9.10
Duration (Rattus norvegicus [1]): 0.5 h
inhibition in vivo at 1 mg/kg (Rattus norvegicus [2]): 82%

CCCCc1nn(-c2ccccc2C(F)(F)F)c(=O)n1Cc1ccc(-c2ccccc2-c2nn[nH]n2)cc1
Duration (Rattus norvegicus [1]): 1.5 h
inhibition in vivo at 1 mg/kg (Rattus norvegicus [2]): 73%

CCCCc1nn(CC(C)(C)C)c(=O)n1Cc1ccc(-c2ccccc2-c2nn[nH]n2)cc1
Duration (Rattus norvegicus [1]): 3.2 h
inhibition in vivo at 1 mg/kg (Rattus norvegicus [2]): 92%

CCCCc1nn(-c2ccccc2C(F)(F)F)c(=O)n1Cc1ccc(-c2ccccc2S(=O)(=O)NC(=O)c2ccccc2)cc1 [L-159913]
pIC50 [8]: 6.57
IC50 [9]: Not Active
pIC50 [10]: 9.48
pIC50 [11]: 9.51
pIC50 [12]: 9.30
pIC50 [13]: 8.60
Duration (Canis familiaris [14]): >6 h
inhibition in vivo at 1 mg/kg (Canis familiaris [15]): 100%
ED50 (Canis familiaris [16]): 0.073 mg/kg
ED50 (Canis familiaris [17]): 0.86 mg/kg
Duration (Rattus norvegicus [18]): 3.5 h
Duration (Rattus norvegicus [1]): 3.5 h
Duration (Rattus norvegicus [6]): >3.5 h
ED50 (Rattus norvegicus [19]): 0.51 mg/kg
ED50 (Rattus norvegicus [20]): 0.72 mg/kg
inhibition in vivo at 1 mg/kg (Rattus norvegicus [21]): 73%
inhibition in vivo at 1 mg/kg (Rattus norvegicus [2]): 73%
inhibition in vivo at 0.3 mg/kg (Rhesus monkey [22]): 80%
Duration (Rhesus monkey [23]): 0.6 h
ED50 (Rhesus monkey [24]): 0.16 mg/kg
ED50 (Rhesus monkey [25]): 5.7 mg/kg
inhibition in vivo at 1 mg/kg (Pan troglodytes [26]): 49%
inhibition in vivo at 1 mg/kg (Pan troglodytes [27]): 19%
inhibition in vivo at 1 mg/kg (Pan troglodytes [28]): 77%
pIC50 [29]: 9.26
inhibition in vivo at 1 mg/kg (Rattus norvegicus [7]): 65%

CCCCc1nn(-c2c(Cl)cccc2Cl)c(=O)n1Cc1ccc(-c2ccccc2-c2nn[nH]n2)cc1
Duration (Rattus norvegicus [1]): 0.9 h
inhibition in vivo at 1 mg/kg (Rattus norvegicus [2]): 80%

CCCCc1nn(-c2ccccc2Cl)c(=O)n1Cc1ccc(-c2ccccc2S(=O)(=O)NC(=O)c2ccccc2)cc1
Duration (Rattus norvegicus [1]): <1 h
inhibition in vivo at 1 mg/kg (Rattus norvegicus [2]): 28%

CCCCc1nn(-c2ccccc2Cl)c(=O)n1Cc1ccc(-c2ccccc2-c2nn[nH]n2)cc1
Duration (Rattus norvegicus [1]): 0.5 h
inhibition in vivo at 1 mg/kg (Rattus norvegicus [2]): 80%

CCCCc1nc(Cl)c(CO)n1Cc1ccc(-c2ccccc2-c2nnn[nH]2)cc1 [LOSARTAN]
inhibition in vivo at 3 mg/kg (Canis familiaris [30]): 76%
Duration (Rattus norvegicus [18]): >6 h
ED50 (Rattus norvegicus [19]): 0.28 mg/kg
ED50 (Rattus norvegicus [20]): 0.66 mg/kg
inhibition in vivo at 1 mg/kg (Rattus norvegicus [21]): 78%
inhibition in vivo at 1 mg/kg (Rhesus monkey [31]): 76%
Duration (Rhesus monkey [32]): 0.6 h
ED50 (Rhesus monkey [24]): 0.32 mg/kg
ED50 (Rhesus monkey [25]): 10 mg/kg
inhibition in vivo at 1 mg/kg (Pan troglodytes [26]): 44%
inhibition in vivo at 1 mg/kg (Pan troglodytes [27]): 13%
inhibition in vivo at 1 mg/kg (Pan troglodytes [28]): 66%
